Blank lines part the entries; values can stand above or below the molecule they belong to. Where a SMILES comes first, the peptide text is derived from it. The star is where a group is joined. Cbz = O=C(OCc1ccccc1)*
Assays:
mouse serum = assay: Ex vivo Ang-; format: biochemical
[1] = Plasma angiotensin peptide levels after i.p. Ang II injection; format: in vivo, mice
lung lysates = assay: Ex vivo Ang-; details: for peak Ang-(1-7) at 15 min: no inhibitor (Figure 4b)
kidney lysates = assay: Ex vivo Ang-; format: biochemical, mouse
lung tissue = assay: Ex vivo Ang-; format: biochemical, mouse; details: lung tissue (Supplement Figure S4b)
PRCP = details: selective for POP in the 10 μM range; cited from earlier work
Ang II = assay: In vitro Phenylalanine formation from Ang II by recombinant enzymes; format: biochemical; details: equivalent amounts of murine recombinant enzymes, fluorometric (Figure 6c)
[2] = ACE2−/−/PRCP−/− sera incubated with Ang II, n=3
[3] = WT mice, Ang II i.p., 5 minutes, LC/MS-MS, n=6, mean ± SE
[4] = WT sera incubated with Ang II, ZPP 10^−5M, n=6

Ang-(1-7) formed at 15 minutes (mouse serum; [2]): 17.8 ± 6 pmol/mL
Ang-(1-7) formed at 30 minutes (mouse serum; [2]): 17 ± 7 pmol/mL
Ang-(1-7) formed at 30 minutes (mouse serum; WT sera incubated with Ang II, no ZPP, n=6): 31.8 ± 6.7 pmol/mL
amount of Ang-(1-7) formed from Ang II (mouse serum; sera from POP−/− mice (n=4) compared to ACE2−/−/PRCP−/− and WT mice): markedly reduced
levels of plasma Ang-(1-7) at 30 minutes ([1]; 30 minutes post infusion, WT, WT treated with ZPP, ACE2−/−/PRCP−/− (Figure S3b)): decreased markedly
levels of plasma Ang II at 30 minutes ([1]; 30 minutes post infusion, all four groups studied (Figure S3a)): markedly decreased
plasma Ang-(1-7) levels ([1]; ACE2−/−/PRCP−/− mice, 5 minutes after Ang II infusion, no ZPP (Figure 2b)): 537 ± 70 fmol/mL
plasma Ang-(1-7) levels ([1]; POP−/− mice, 5 minutes after Ang II i.p. (Figure 3d)): 309 ± 46 fmol/mL
plasma Ang-(1-7) to Ang II ratio ([1]; POP−/− mice, after Ang II infusion): 0.23±0.02
plasma Ang-(1-7) levels ([1]; WT mice (controls of POP−/−), 5 minutes after Ang II i.p. (Figure 3d)): 472 ± 28 fmol/mL
plasma Ang-(1-7) levels ([1]; WT mice, 5 minutes after Ang II infusion, no ZPP (Figure 2b)): 563 ± 51 fmol/mL
plasma Ang II levels in Ang II-infused vs control animals ([1]; WT mice, 5 minutes, ELISA): about 100 fold
plasma Ang-(1-7) levels ([1]; WT mice, Ang II 0.2 μg/g BW i.p., 5 minutes, ELISA, n=6, mean ± SE): 1268 ± 439 fmol/mL
plasma Ang-(1-5) [1, 3]: 233 ± 24 fmol/mL
plasma Ang-(1-7) [1, 3]: 854 ± 222 fmol/mL
plasma Ang-(1-7) levels ([1]; WT mice, Ang II i.p., 5 minutes, RIA, same plasma samples, mean ± SE): 1702 ± 268 fmol/mL
peak Ang-(1-7) at 15 min (lung lysates; ACE2−/−/PRCP−/− lung lysates incubated with Ang II): 313 ± 31 pmol/mL
peak Ang-(1-7) at 15 min (lung lysates; WT lung lysates incubated with Ang II): 230 ± 33 pmol/mL
Ang-(1-7) formation from Ang II (lung lysates; lung lysates from POP−/− mice, no inhibitor (Figure 4d)): almost undetectable
peak Ang-(1-7) formation at 15 minutes (lung lysates; lung lysates, Ang II without S-17092 (Supplement figure S4a)): 182.8 ± 23 pmol/mL
peak Ang-(1-7) levels (kidney lysates; ACE2−/−/PRCP−/− kidney lysates spiked with Ang II, no inhibitor): 94 ± 18 pmol/mL
peak Ang-(1-7) formation at 15 minutes (kidney lysates; WT kidney lysates spiked with Ang II, no inhibitor, n=10): 417 ± 32 pmol/mL
Ang-(1-7) formation from Ang II over time, POP−/− vs WT (kidney lysates; kidneys from WT and POP−/− mice, no inhibitor (Figure 4c)): almost identical
Molecule: CC[C@H](C)[C@H](NC(=O)[C@H](Cc1ccc(O)cc1)NC(=O)[C@@H](NC(=O)[C@H](CCCNC(=N)N)NC(=O)[C@@H](N)CC(=O)O)C(C)C)C(=O)N[C@@H](Cc1cnc[nH]1)C(=O)N1CCC[C@H]1C(=O)N[C@@H](Cc1ccccc1)C(=O)O [Ang II, Angiotensin II]

Phenylalanine generation from Ang II (Ang II): 127±12 RFU/ng
Molecule: mrPOP: murine recombinant Prolyl Oligopeptidase

Phenylalanine generation from Ang II (Ang II): 789±29 RFU/ng
B1: mrACE2: murine recombinant Angiotensin Converting Enzyme 2 (protein, UniProt Q8R0I0 18-805, looked up)
Angiotensin-converting enzyme …: QSLTEENAKTFLNNFNQEAEDLSYQSSLASWNYNTNITEENAQKMSEAAAKWSAFYEEQSKTAQSFSLQEIQTPIIKRQLQALQQSGSSALSADKNKQLNTILNTMSTIYSTGKVCNPKNPQECLLLEPGLDEIMATSTDYNSRLWAWEGWRAEVGKQLRPLYEEYVVLKNEMARANNYNDYGDYWRGDYEAEGADGYNYNRNQLIEDVERTFAEIKPLYEHLHAYVRRKLMDTYPSYISPTGCLPAHLLGDMWGRFWTNLYPLTVPFAQKPNIDVTDAMMNQGWDAERIFQEAEKFFVSVGLPHMTQGFWANSMLTEPADGRKVVCHPTAWDLGHGDFRIKMCTKVTMDNFLTAHHEMGHIQYDMAYARQPFLLRNGANEGFHEAVGEIMSLSAATPKHLKSIGLLPSDFQEDSETEINFLLKQALTIVGTLPFTYMLEKWRWMVFRGEIPKEQWMKKWWEMKREIVGVVEPLPHDETYCDPASLFHVSNDYSFIRYYTRTIYQFQFQEALCQAAKYNGSLHKCDISNSTEAGQKLLKMLSLGNSEPWTKALENVVGARNMDVKPLLNYFQPLFDWLKEQNRNSFVGWNTEWSPYADQSIKVRISLKSALGANAYEWTNNEMFLFRSSVAYAMRKYFSIIKNQTVPFLEEDVRVSDLKPRVSFYFFVTSPQNVSDVIPRSEVEDAIRMSRGRINDVFGLNDNSLEFLGIHPTLEPPYQPPVTIWLIIFGVVMALVVVGIIILIVTGIKGRKKKNETKREENPYDSMDIGKGESNAGFQNSDDAQTSF

Continued, molecule first:

Molecule: CC(C)C[C@H](N[C@@H](Cc1cncn1Cc1cc(Cl)cc(Cl)c1)C(=O)O)C(=O)O [MLN-4760]
effect of MLN-4760 on Ang-(1-7) formation (lung lysates; POP−/− lungs (Figure 4d)): no effect
generation of Ang-(1-7) from Ang II with MLN-4760 (kidney lysates; POP−/− kidney lysates, MLN-4760 10^−5M (Figure 4c)): completely obliterated

Molecule: O=C(O)CNC(=O)C(CS)Cc1ccccc1 (stereo not drawn) [Thiorphan]
peak formation of Ang-(1-7) from exogenous Ang I with inhibitor (lung tissue): reduced the peak level of Ang-(1-7) from Ang I to an extent similar to S-17092

Molecule: O=C[C@@H]1CCCN1C(=O)[C@@H]1CCCN1C(=O)OCc1ccccc1 [ZPP, Z-Pro-Prolinal] (Cbz-Pro-Pro-aldehyde)
Ang-(1-7) formed at 15 minutes with ZPP (mouse serum; [4]): 4.5 ± 4.5 pmol/mL
Ang-(1-7) formed at 30 minutes with ZPP (mouse serum; [4]): 8.9 ± 4.5 pmol/mL
lowering of Ang-(1-7) formation at 15 minutes (mouse serum; WT sera, ZPP 10^−5M): 85,8%
lowering of Ang-(1-7) formation at 30 minutes (mouse serum; WT sera, ZPP 10^−5M): 72%
concentration at which ZPP also inhibits PRCP (PRCP): > 100 µM
Ang-(1-7) formation from Ang II with ZPP (lung lysates; lung lysates from both WT and ACE2−/−/PRCP−/− mice (Figure 4b)): completely prevented
Ang-(1-7) levels with ZPP (kidney lysates; ACE2−/−/PRCP−/− kidney lysates, ZPP, n=7, all time points assessed): undetectable
Ang-(1-7) formation at 15 minutes with ZPP (kidney lysates; WT kidney lysates spiked with Ang II plus ZPP): 417 ± 32 pmol/mL

Reference: paper PMC7286421 (Hypertension (Dallas, Tex. : 1979), 2019)
